Laboratory results taken from patent US20240158412A1 (Faxian Therapeutics, LLC, priority 2021, published 2024).

Target: USP7 (Homo sapiens, UniProt Q93009)
Test: biochemical
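Further: fluorescence intensity readout of USP7 enzymatic activity, reaction incubated 90 min at room temperature.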

Sequence of USP7 (Q93009 whole entry): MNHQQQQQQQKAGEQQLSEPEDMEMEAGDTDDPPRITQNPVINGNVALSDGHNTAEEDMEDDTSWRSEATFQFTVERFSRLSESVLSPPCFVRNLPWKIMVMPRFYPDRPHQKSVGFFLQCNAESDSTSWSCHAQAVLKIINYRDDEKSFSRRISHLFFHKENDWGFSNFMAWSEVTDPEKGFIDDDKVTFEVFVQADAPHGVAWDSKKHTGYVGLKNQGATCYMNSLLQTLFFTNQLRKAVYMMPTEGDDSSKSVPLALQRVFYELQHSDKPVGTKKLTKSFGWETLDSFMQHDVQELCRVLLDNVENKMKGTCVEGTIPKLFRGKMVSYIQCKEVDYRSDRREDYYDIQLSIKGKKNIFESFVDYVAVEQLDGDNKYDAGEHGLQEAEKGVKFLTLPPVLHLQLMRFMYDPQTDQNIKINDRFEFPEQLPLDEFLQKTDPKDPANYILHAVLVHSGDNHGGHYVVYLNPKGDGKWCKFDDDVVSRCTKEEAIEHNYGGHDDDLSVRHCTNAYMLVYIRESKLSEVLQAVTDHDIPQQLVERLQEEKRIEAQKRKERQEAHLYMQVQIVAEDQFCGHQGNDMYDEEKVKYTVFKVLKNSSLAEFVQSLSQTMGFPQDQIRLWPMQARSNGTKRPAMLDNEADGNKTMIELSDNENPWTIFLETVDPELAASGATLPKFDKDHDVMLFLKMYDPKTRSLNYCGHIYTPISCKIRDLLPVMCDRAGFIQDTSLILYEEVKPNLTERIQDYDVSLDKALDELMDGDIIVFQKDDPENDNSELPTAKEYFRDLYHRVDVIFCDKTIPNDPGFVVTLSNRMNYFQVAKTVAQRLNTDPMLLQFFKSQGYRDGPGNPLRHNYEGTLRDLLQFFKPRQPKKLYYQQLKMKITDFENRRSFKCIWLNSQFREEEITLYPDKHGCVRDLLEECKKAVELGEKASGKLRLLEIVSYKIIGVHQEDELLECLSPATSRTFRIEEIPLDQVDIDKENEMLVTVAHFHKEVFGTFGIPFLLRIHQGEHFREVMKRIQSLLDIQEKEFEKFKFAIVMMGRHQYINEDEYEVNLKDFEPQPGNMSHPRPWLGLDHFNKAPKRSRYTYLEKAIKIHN

| Structure (SMILES) | IC50 |
| --- | --- |
| O=C1COC(=O)N1Cc1cc2nccc(-c3cc(Cl)cc4c3N([C@@H]3CNC5(CCC5)C3)CCC4)c2s1 [Example 151, (S)-3-((7-(6-chloro-1-(5-azaspiro[3.4]octan-7-yl)-1,2,3,4-tetrahydroquinolin-8-yl)thieno[3,2-b]pyridin-2-yl)methyl)oxazolidine-2,4-dione] | < 0.01 µM |
| CC1(C)C[C@H](N2CCOc3cc(C#N)cc(-c4ccnc5cc(Cn6ncc(C(C)(C)C)cc6=O)sc45)c32)CN1 [Example 136, (S)-5-(2-((4-(tert-butyl)-6-oxopyridazin-1(6H)-yl)methyl)thieno[3,2-b]pyridin-7-yl)-4-(5,5-dimethylpyrrolidin-3-yl)-3,4-dihydro-2H-benzo[b][1,4]oxazine-7-carbonitrile] | < 0.01 µM |
| O=C1CCC(=O)N1Cc1cc2nccc(-c3cc(Cl)cc4c3N(C3CC5(CNC5)C3)CCC4)c2s1 [Example 137, 1-[[7-[1-(2-azaspiro[3.3]heptan-6-yl)-6-chloro-3,4-dihydro-2H-quinolin-8-yl]thieno[3,2-b]pyridin-2-yl]methyl]pyrrolidine-2,5-dione] | 0.01 to 0.1 µM |
| O=C1CCC(=O)N1Cc1cc2nccc(-c3cc(Cl)cc4c3N([C@@H]3CCCNC3)CCC4)c2s1 (single isomer, unassigned) [Example 51b] | 0.01 to 0.1 µM |
| O=c1ccn(C2CC2)c(=O)n1Cc1cc2nccc(-c3cc(C(F)(F)F)cc4c3N(C3CNC5(CCC5)C3)CCC4)c2s1 (single isomer, unassigned) [Example 162a] | < 0.01 µM |
| CC1(c2cnn(Cc3cc4nccc(-c5cc(C#N)cc6c5N([C@@H]5CN[C@@H](CO)C5)C[C@@H]5C[C@H]65)c4s3)c(=O)c2)CC1 (single isomer, unassigned) [Example 195b] | < 0.01 µM |
| CC1(C)C[C@@H](N2CCCc3cc(Cl)cc(-c4ccnc5cc(Cn6c(=O)ccn(CC(F)(F)F)c6=O)sc45)c32)CN1 (single isomer, unassigned) [Example 118a] | 0.01 to 0.1 µM |
| CC1(c2cnn(Cc3cc4nccc(-c5cc(Cl)cc6c5N([C@@H]5CN[C@@H](CO)C5)CCC6)c4s3)c(=O)c2)CC1 [Example 188, 2-((7-(6-chloro-1-((3S,5R)-5-(hydroxymethyl)pyrrolidin-3-yl)-1,2,3,4-tetrahydroquinolin-8-yl)thieno[3,2-b]pyridin-2-yl)methyl)-5-(1-methylcyclopropyl)pyridazin-3(2H)-one] | < 0.01 µM |
| N#Cc1cc2c(c(-c3ncnc4cc(Cn5c(=O)ccn(CC(F)(F)F)c5=O)sc34)c1)N([C@H]1CCNC1)CCC2 [Example 92, (S)-8-(6-((2,6-dioxo-3-(2,2,2-trifluoroethyl)-2,3-dihydropyrimidin-1(6H)-yl)methyl)thieno[3,2-d]pyrimidin-4-yl)-1-(pyrrolidin-3-yl)-1,2,3,4-tetrahydroquinoline-6-carbonitrile] | < 0.01 µM |
| O=C1CCC(=O)N1Cc1cc2nccc(-c3cc(Cl)cc4c3N([C@H]3CCNC3)C[C@H]3C[C@@H]43)c2s1 (single isomer, unassigned) [Example 113d] | < 0.01 µM |
| Cn1ccc(=O)n(Cc2cc3nccc(-c4cc(C#N)cc5c4N([C@H]4CCNC4)CCC5)c3s2)c1=O [Example 87, (S)-8-(2-((3-methyl-2,6-dioxo-2,3-dihydropyrimidin-1(6H)-yl)methyl)thieno[3,2-b]pyridin-7-yl)-1-(pyrrolidin-3-yl)-1,2,3,4-tetrahydroquinoline-6-carbonitrile] | < 0.01 µM |
| Cc1cnn(Cc2cc3nccc(-c4cc(C#N)cc5c4N(C4CNC6(CCC6)C4)CCC5)c3s2)c(=O)c1 (single isomer, unassigned) [Example 164a] | < 0.01 µM |
| O=C1CCC(=O)N1Cc1cc2nccc(-c3cc(Cl)cc4c3N([C@H]3CCCNCC3)CCC4)c2s1 (single isomer, unassigned) [Example 47a] | < 0.01 µM |
| O=C1CCC(=O)N1Cc1cc2nccc(-c3cc(Cl)cc4c3N(C3CN(C5COC5)C3)CCC4)c2s1 [Example 6, 1-((7-(6-chloro-1-(1-(oxetan-3-yl)azetidin-3-yl)-1,2,3,4-tetrahydroquinolin-8-yl)thieno[3,2-b]pyridin-2-yl)methyl)pyrrolidine-2,5-dione] | 0.01 to 0.1 µM |
| N#Cc1cc2c(c(-c3ccnc4cc(Cn5c(=O)ccn(CC(F)(F)F)c5=O)sc34)c1)N([C@H]1CCN([C@@H]3CC[C@H]3O)C1)CCC2 (single isomer, unassigned) [Example 107a] | < 0.01 µM |
| O=C1CCC(=O)N1Cc1cc2nccc(-c3cc(Cl)cc4c3N(C3CNC5(CCC5)C3)CCO4)c2s1 (single isomer, unassigned) [Example 171a] | 0.101 to 1 µM |
| O=C1CCC(=O)N1Cc1cc2nccc(-c3cc(Cl)cc4c3N(C3CN(C5CCC5)C3)CCC4)c2s1 [Example 3, 1-((7-(6-chloro-1-(1-cyclobutylazetidin-3-yl)-1,2,3,4-tetrahydroquinolin-8-yl)thieno[3,2-b]pyridin-2-yl)methyl)pyrrolidine-2,5-dione] | 0.01 to 0.1 µM |

| Structure (SMILES) | IC50 |
| --- | --- |
| NC(=O)c1cc(-c2ccnc3cc(Cn4c(=O)ccn(CC(F)(F)F)c4=O)sc23)c2c(c1)[C@@H]1C[C@@H]1CN2[C@@H]1CNC2(CCC2)C1 [Example 170, (1aS,7bR)-4-(2-((2,6-dioxo-3-(2,2,2-trifluoroethyl)-3,6-dihydropyrimidin-1(2H)-yl)methyl)thieno[3,2-b]pyridin-7-yl)-3-((S)-5-azaspiro[3.4]octan-7-yl)-1a,2,3,7b-tetrahydro-1H-cyclopropa[c]quinoline-6-carboxamide] | < 0.01 µM |
| O=C1CCC(=O)N1Cc1cc2nccc(-c3cc(Cl)cc4c3N(C3CCNCC3)CCC4)c2s1 [Example 45, 1-((7-(6-chloro-1-(piperidin-4-yl)-1,2,3,4-tetrahydroquinolin-8-yl)thieno[3,2-b]pyridin-2-yl)methyl)pyrrolidine-2,5-dione] | 0.01 to 0.1 µM |
| N#Cc1cc(-c2ccnc3cc(Cn4c(=O)ccn(CC(F)F)c4=O)sc23)c2c(c1)[C@@H]1C[C@@H]1CN2[C@H]1CCNC1 [Example 117d, (1aS,7bR)-4-[2-[[3-(2,2-difluoroethyl)-2,6-dioxo-pyrimidin-1-yl]methyl]thieno[3,2-b]pyridin-7-yl]-3-[(3S)-pyrrolidin-3-yl]-1,1a,2,7b-tetrahydrocyclopropa[c]quinoline-6-carbonitrile] | < 0.01 µM |
| Cc1cnn(Cc2cc3nccc(-c4cc(C#N)cc5c4N(C4CNC(C)(C)C4)CCC5)c3s2)c(=O)c1 (single isomer, unassigned) [Example 120a] | < 0.01 µM |
| O=c1ccn(CC(F)(F)F)c(=O)n1Cc1cc2nccc(-c3cc(Cl)cc4c3N([C@H]3CCNC3)C[C@H]3C[C@@H]43)c2s1 [Example 114, 3-((7-((1aS,7bR)-6-chloro-3-((S)-pyrrolidin-3-yl)-1a,2,3,7b-tetrahydro-1H-cyclopropa[c]quinolin-4-yl)thieno[3,2-b]pyridin-2-yl)methyl)-1-(2,2,2-trifluoroethyl)pyrimidine-2,4(1H,3H)-dione] | < 0.01 µM |
| O=C1CCC(=O)N1Cc1cc2nccc(-c3cc(Cl)cc4c3N([C@@H]3CC[C@@]5(CCCN5)C3)CCC4)c2s1 (single isomer, unassigned) [Example 179b] | 0.01 to 0.1 µM |
| CC1(C)CC(N2CCOc3cc(C#N)cc(-c4ccnc5cc(Cn6c(=O)ccn(CC(F)(F)F)c6=O)sc45)c32)CN1 (single isomer, unassigned) [Example 133b] | 0.101 to 1 µM |
| Cn1cc(Cc2cc3nccc(-c4cc(Cl)cc5c4N([C@H]4CCNC4)CCC5)c3s2)nn1 (single isomer, unassigned) [Example 99] | 0.01 to 0.1 µM |
| N#Cc1cc(-c2ccnc3cc(Cn4c(=O)ccn(CC(F)(F)F)c4=O)sc23)c2c(c1)[C@@H]1C[C@@H]1CN2[C@@H]1CNC2(CCC2)C1 [Example 169, (1aS,7bR)-4-(2-((2,6-dioxo-3-(2,2,2-trifluoroethyl)-3,6-dihydropyrimidin-1(2H)-yl)methyl)thieno[3,2-b]pyridin-7-yl)-3-((S)-5-azaspiro[3.4]octan-7-yl)-1a,2,3,7b-tetrahydro-1H-cyclopropa[c]quinoline-6-carbonitrile] | < 0.01 µM |
| O=C1CCC(=O)N1Cc1cc2nccc(-c3cc(C(F)(F)F)cc4c3N(C3CNC5(CCC5)C3)CCO4)c2s1 (single isomer, unassigned) [Example 175b] | < 0.01 µM |
| N#Cc1cc2c(c(-c3ncnc4cc(Cn5c(=O)ccn(CC(F)(F)F)c5=O)sc34)c1)N([C@@H]1CCNC1)CCC2 [Example 93, (R)-8-(6-((2,6-dioxo-3-(2,2,2-trifluoroethyl)-2,3-dihydropyrimidin-1(6H)-yl)methyl)thieno[3,2-d]pyrimidin-4-yl)-1-(pyrrolidin-3-yl)-1,2,3,4-tetrahydroquinoline-6-carbonitrile] | < 0.01 µM |
| N[C@H]1C[C@@H](N2CCCc3cc(Cl)cc(-c4ccnc5cc(CN6C(=O)CCC6=O)sc45)c32)C1 (single isomer, unassigned) [Example 42a, cis-1-((7-(1-(3-aminocyclobutyl)-6-chloro-1,2,3,4-tetrahydroquinolin-8-yl)thieno[3,2-b]pyridin-2-yl)methyl)pyrrolidine-2,5-dione] | < 0.01 µM |
| O=C1CCC(=O)N1Cc1cc2nccc(-c3cc(Cl)cc4c3N([C@@H]3CN(CCF)C5(CCC5)C3)CCC4)c2s1 [Example 142, (S)-1-((7-(6-chloro-1-(5-(2-fluoroethyl)-5-azaspiro[3.4]octan-7-yl)-1,2,3,4-tetrahydroquinolin-8-yl)thieno[3,2-b]pyridin-2-yl)methyl)pyrrolidine-2,5-dione] | < 0.01 µM |
| CN1C[C@@H](N2CCCc3cc(Cl)cc(-c4ccnc5cc(CN6C(=O)CCC6=O)sc45)c32)CC12CCC2 [Example 140, (S)-1-((7-(6-chloro-1-(5-methyl-5-azaspiro[3.4]octan-7-yl)-1,2,3,4-tetrahydroquinolin-8-yl)thieno[3,2-b]pyridin-2-yl)methyl)pyrrolidine-2,5-dione] | < 0.01 µM |
| O=C1CCC(=O)N1Cc1cc2nccc(-c3cc(Cl)cc4c3C3(CCC4)CNCCO3)c2s1 (single isomer, unassigned) [Example 229a] | 0.01 to 0.1 µM |
| CN1CC[C@H](N2CCCc3cc(Cl)cc(-c4ccnc5cc(CN6C(=O)CCC6=O)sc45)c32)C1 [Example 59, (S)-1-((7-(6-chloro-1-(1-methylpyrrolidin-3-yl)-1,2,3,4-tetrahydroquinolin-8-yl)thieno[3,2-b]pyridin-2-yl)methyl)pyrrolidine-2,5-dione] | < 0.01 µM |
